Test results: BindingDB's records for doi:10.7270/Q2J67FB5 (Nmmlsc, 2007)

Each compound was assayed against T1, fMet-Leu-Phe receptor (Homo sapiens, UniProt P21462) (assay: formyl peptide receptor binders – dose response (AID 519)).
T1 sequence (P21462 whole entry): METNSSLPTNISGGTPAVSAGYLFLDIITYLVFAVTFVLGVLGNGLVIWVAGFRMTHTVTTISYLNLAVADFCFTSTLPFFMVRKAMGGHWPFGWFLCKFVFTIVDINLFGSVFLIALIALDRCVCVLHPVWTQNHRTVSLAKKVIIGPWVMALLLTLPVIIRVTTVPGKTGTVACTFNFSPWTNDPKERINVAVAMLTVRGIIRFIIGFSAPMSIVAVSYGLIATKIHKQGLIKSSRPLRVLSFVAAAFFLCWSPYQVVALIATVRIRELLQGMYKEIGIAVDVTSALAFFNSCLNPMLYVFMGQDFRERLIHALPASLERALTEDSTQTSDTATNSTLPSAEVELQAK

**Q.** How did the IC50 turn out when `Cc1ccc(C(=O)C2C(=O)C(=O)N(c3cc(C)on3)C2c2cccc(Br)c2)cc1` (centres undefined) [(4E)-5-(3-bromophenyl)-1-(5-methyl-1,2-oxazol-3-yl)-4-[(4-methylphenyl)-oxidanyl-methylidene]pyrrolidine-2,3-dione] was run?
**A.** > 66.7 µM

**Q.** Which IC50 does the source give for `O=C1C(=O)N(CCOCCO)C(c2cccs2)C1C(=O)c1cccs1` (centres undefined) [1-[2-(2-hydroxyethyloxy)ethyl]-4-oxidanyl-2-thiophen-2-yl-3-thiophen-2-ylcarbonyl-2H-pyrrol-5-one] here?
**A.** 21.4 µM

**Q.** Which IC50 does the source give for `O=c1c(C23CC4CC(CC(C4)C2)C3)c(O)n(-c2ccccc2)n1-c1ccccc1` [MLS000526352] here?
**A.** 11.5 µM

**Q.** For `O=C1C(=O)N(CCCN2CCOCC2)C(c2ccccn2)C1C(=O)c1cc2ccccc2o1` (centres undefined) [3-(1-benzofuran-2-carbonyl)-4-hydroxy-1-(3-morpholin-4-ylpropyl)-2-pyridin-2-yl-2H-pyrrol-5-one], which IC50 is on record?
**A.** 60.7 µM

**Q.** How did the IC50 turn out when `COc1cc(C2C(C(=O)c3ccc(C)o3)C(=O)C(=O)N2Cc2cccnc2)ccc1O` (centres undefined) [2-(3-methoxy-4-oxidanyl-phenyl)-3-(5-methylfuran-2-yl)carbonyl-4-oxidanyl-1-(pyridin-3-ylmethyl)-2H-pyrrol-5-one] was run?
**A.** > 66.7 µM

**Q.** For `O=C1C(=O)N(CCc2ccccc2)C(c2cccnc2)C1C(=O)c1ccco1` (centres undefined) [3-(furan-2-carbonyl)-4-hydroxy-1-(2-phenylethyl)-2-pyridin-3-yl-2H-pyrrol-5-one], which IC50 is on record?
**A.** > 66.7 µM

**Q.** `COc1cc(C2C(C(=O)c3ccco3)C(=O)C(=O)N2c2cc(C)on2)cc(Br)c1O` (centres undefined) [2-(3-bromanyl-5-methoxy-4-oxidanyl-phenyl)-3-(furan-2-ylcarbonyl)-1-(5-methyl-1,2-oxazol-3-yl)-4-oxidanyl-2H-pyrrol-5-one] was tested. Which IC50 did it give?
**A.** 47.7 µM

**Q.** Which IC50 does the source give for `CCCOc1ccc(C2C(C(=O)c3ccc(C)o3)C(=O)C(=O)N2Cc2cccnc2)cc1` (centres undefined) [3-(5-methylfuran-2-yl)carbonyl-4-oxidanyl-2-(4-propoxyphenyl)-1-(pyridin-3-ylmethyl)-2H-pyrrol-5-one] here?
**A.** 42.7 µM

**Q.** `COc1cccc(C2C(C(=O)c3cc4ccccc4o3)C(=O)C(=O)N2c2cc(C)on2)c1OC` (centres undefined) [3-(1-benzofuran-2-carbonyl)-2-(2,3-dimethoxyphenyl)-4-hydroxy-1-(5-methyl-1,2-oxazol-3-yl)-2H-pyrrol-5-one] was tested. Which IC50 did it give?
**A.** > 66.7 µM

**Q.** With `CCOc1ccc(C2C(C(=O)c3ccco3)C(=O)C(=O)N2Cc2cccnc2)cc1` (centres undefined) [2-(4-ethoxyphenyl)-3-(furan-2-carbonyl)-4-hydroxy-1-(pyridin-3-ylmethyl)-2H-pyrrol-5-one] as the compound, how does the IC50 read?
**A.** 15.3 µM

**Q.** How did the IC50 turn out when `CC1=NC(C)=C(C#N)C(c2ccc3ncccc3c2)C1C#N` (centres undefined) was run?
**A.** > 66.7 µM

**Q.** Which IC50 does the source give for `Cc1ccc(C2C(C(=O)c3sc(C)nc3C)C(=O)C(=O)N2CCN2CCOCC2)o1` (centres undefined) [3-(2,4-dimethyl-1,3-thiazole-5-carbonyl)-4-hydroxy-2-(5-methylfuran-2-yl)-1-(2-morpholin-4-ylethyl)-2H-pyrrol-5-one] here?
**A.** > 66.7 µM

**Q.** For `COc1ccc(OC)c(C2C(C(=O)c3ccco3)C(=O)C(=O)N2CCCN2CCOCC2)c1` (centres undefined) [2-(2,5-dimethoxyphenyl)-3-(furan-2-carbonyl)-4-hydroxy-1-(3-morpholin-4-ylpropyl)-2H-pyrrol-5-one], which IC50 is on record?
**A.** 26.4 µM

**Q.** `COCCCN1C(=O)C(=O)C(C(=O)c2ccco2)C1c1ccc(Br)cc1` (centres undefined) [2-(4-bromophenyl)-3-(furan-2-carbonyl)-4-hydroxy-1-(3-methoxypropyl)-2H-pyrrol-5-one] was tested. Which IC50 did it give?
**A.** 14.7 µM

**Q.** How did the IC50 turn out when `O=C1C(=O)N(c2ncccn2)C(c2cccc(Cl)c2)C1C(=O)c1ccco1` (centres undefined) [2-(3-chlorophenyl)-3-(furan-2-carbonyl)-4-hydroxy-1-pyrimidin-2-yl-2H-pyrrol-5-one] was run?
**A.** > 66.7 µM

**Q.** Which IC50 does the source give for `Cc1ccc(C2C(C(=O)c3cnn(-c4ccccc4)c3C)C(=O)C(=O)N2CCN2CCOCC2)o1` (centres undefined) [(4Z)-4-[hydroxy-(5-methyl-1-phenyl-4-pyrazolyl)methylidene]-5-(5-methyl-2-furanyl)-1-[2-(4-morpholinyl)ethyl]pyrrolidine-2,3-dione] here?
**A.** 23.2 µM

**Q.** With `C=CCOc1cccc(C2C(C(=O)c3ccco3)C(=O)C(=O)N2CCN2CCOCC2)c1` (centres undefined) [3-(furan-2-carbonyl)-4-hydroxy-1-(2-morpholin-4-ylethyl)-2-(3-prop-2-enoxyphenyl)-2H-pyrrol-5-one] as the compound, how does the IC50 read?
**A.** > 66.7 µM

**Q.** With `C=CCOc1ccc(C2C(C(=O)c3ccco3)C(=O)C(=O)N2Cc2cccnc2)cc1` (centres undefined) [3-(furan-2-carbonyl)-4-hydroxy-2-(4-prop-2-enoxyphenyl)-1-(pyridin-3-ylmethyl)-2H-pyrrol-5-one] as the compound, how does the IC50 read?
**A.** 9.7 µM

**Q.** For `CC1=C(C(=O)OC(C)C)[C@]2(C(=O)N(CC(N)=O)c3ccccc32)C(C#N)C(=N)O1` (stereo partly drawn) [(3R)-6'-amino-1-(2-amino-2-keto-ethyl)-5'-cyano-2-keto-2'-methyl-spiro[indoline-3,4'-pyran]-3'-carboxylic acid isopropyl ester], which IC50 is on record?
**A.** > 66.7 µM

**Q.** `COc1ccccc1C1C(C(=O)c2ccccc2)C(=O)C(=O)N1CCO` (centres undefined) [(4Z)-1-(2-hydroxyethyl)-4-[hydroxy(phenyl)methylene]-5-(2-methoxyphenyl)pyrrolidine-2,3-quinone] was tested. Which IC50 did it give?
**A.** 19.7 µM

**Q.** `O=C1C(=O)N(Cc2ccccc2)C(c2ccco2)C1C(=O)c1ccco1` (centres undefined) [1-Benzyl-4-(furan-2-carbonyl)-5-furan-2-yl-3-hydroxy-1,5-dihydro-pyrrol-2-one] was tested. Which IC50 did it give?
**A.** 12.4 µM

**Q.** Which IC50 does the source give for `COc1cc(C2C(C(=O)c3cccs3)C(=O)C(=O)N2Cc2ccco2)cc(OC)c1OC` (centres undefined) [1-(2-furanylmethyl)-4-hydroxy-3-[oxo(thiophen-2-yl)methyl]-2-(3,4,5-trimethoxyphenyl)-2H-pyrrol-5-one] here?
**A.** 27 µM

**Q.** `Cc1ccc(C(=O)C2C(=O)C(=O)N(CCCn3ccnc3)C2c2ccc(OC(C)C)cc2)o1` (centres undefined) [1-(3-imidazol-1-ylpropyl)-3-(5-methylfuran-2-yl)carbonyl-4-oxidanyl-2-(4-propan-2-yloxyphenyl)-2H-pyrrol-5-one] was tested. Which IC50 did it give?
**A.** > 66.7 µM

**Q.** `C=CCOc1ccc(C2C(C(=O)c3cccs3)C(=O)C(=O)N2c2nnc(C)s2)cc1` (centres undefined) [1-(5-methyl-1,3,4-thiadiazol-2-yl)-4-oxidanyl-2-(4-prop-2-enoxyphenyl)-3-thiophen-2-ylcarbonyl-2H-pyrrol-5-one] was tested. Which IC50 did it give?
**A.** 40.5 µM

**Q.** Which IC50 does the source give for `COCCCN1C(=O)C(=O)C(C(=O)c2ccc(OC)cc2C)C1c1cccnc1` (centres undefined) [(4E)-4-[(4-methoxy-2-methyl-phenyl)-oxidanyl-methylidene]-1-(3-methoxypropyl)-5-pyridin-3-yl-pyrrolidine-2,3-dione] here?
**A.** > 66.7 µM

**Q.** For `O=C1C(=O)N(CC2CCCO2)C(c2cccnc2)C1C(=O)c1ccco1` (centres undefined) [3-(furan-2-carbonyl)-4-hydroxy-1-(oxolan-2-ylmethyl)-2-pyridin-3-yl-2H-pyrrol-5-one], which IC50 is on record?
**A.** 54.8 µM

**Q.** How did the IC50 turn out when `COc1ccc(C2C(C(=O)c3cccs3)C(=O)C(=O)N2c2nnc(C)s2)cc1OC` (centres undefined) [2-(3,4-dimethoxyphenyl)-1-(5-methyl-1,3,4-thiadiazol-2-yl)-4-oxidanyl-3-thiophen-2-ylcarbonyl-2H-pyrrol-5-one] was run?
**A.** > 66.7 µM

**Q.** How did the IC50 turn out when `O=C1C(=O)N(c2ncccn2)C(c2ccc(Cl)cc2)C1C(=O)c1ccco1` (centres undefined) [2-(4-chlorophenyl)-3-(furan-2-carbonyl)-4-hydroxy-1-pyrimidin-2-yl-2H-pyrrol-5-one] was run?
**A.** > 66.7 µM

**Q.** Which IC50 does the source give for `COc1ccc(OC)c(C2C(C(=O)c3cc4ccccc4o3)C(=O)C(=O)N2c2cc(C)on2)c1` (centres undefined) [3-(1-benzofuran-2-carbonyl)-2-(2,5-dimethoxyphenyl)-4-hydroxy-1-(5-methyl-1,2-oxazol-3-yl)-2H-pyrrol-5-one] here?
**A.** 36.6 µM
